The text below walks through data of patent publication US12384808B2, “Modulators of TNF-α activity” (Forward Therapeutics, Inc., priority 2022, dated 2025).

TNFα, sequence (P01375 77-233 limits assumed): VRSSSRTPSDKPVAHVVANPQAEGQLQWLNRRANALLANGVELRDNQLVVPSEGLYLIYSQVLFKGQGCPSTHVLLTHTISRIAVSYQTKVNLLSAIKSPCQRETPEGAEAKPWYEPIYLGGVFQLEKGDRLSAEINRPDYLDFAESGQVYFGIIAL

The test deals with TNFα (Homo sapiens, UniProt P01375). The test can be described thus: TNFα Induced HEK Blue Cellular Assay. The class given is cell-based. The conditions noted are these: HEK Blue TNFα reporter cells, TNFα 100 pg/ml, 24 hrs at 37° C., secreted alkaline phosphatase (QUANTI-Blue) read at 620 nm; read-out: IC50 value. The procedure:
TNFα Induced HEK Blue Cellular Assay
Test articles were diluted in DMSO and serially diluted into 384 well assay plate (Corning 3765), at final concentrations ranging from […] to 0.5 nM. HEK Blue™ TNFα reporter cells were added at a final density of 10,000 cell per well in assay media [DMEM (Gibco, cat #21063-029), 10% fetal bovine serum (ExcelBio, cat #FND500), 1% Penicillin-Streptomycin (Solarbio, cat #P1400-100]. TNFα (R&D 210-TA-020/CF) was then added to the assay plate at a final concentration of 100 pg/ml. This plate was then incubated for 24 hrs at 37° C. and 5% CO2. Secreted alkaline phosphatase expression was then measured using QUANTI-Blue™ (Invivogen), according to manufacturer instructions and read on an Envision microplate reader at 620 nm.
Inhibition data for test compound over a range of concentration was plotted as percentage inhibition of the test compound (100%=maximum inhibition). IC50 values were determined after correcting for background [(sample read−mean of low control)/(mean of high control−mean of low control)] where by the low control is DMSO without stimulation and high control is DMSO with stimulation. The IC50 is defined as the concentration of test compound which produces 50% inhibition and was quantified using the 4 parameter logistic equation to fit the data.
As usually defined, the IC50 is the point on the concentration scale where inhibition reaches its midpoint. On to `[2H]C([2H])([2H])N1C(=O)c2cccc(OC(F)F)c2[C@H]2C[C@@H]1c1nc3ccc(-c4ccc(C(C)P(C)(C)=O)cc4)cc3n12` (single isomer, unassigned) [Example 85, (7R,14R)-1-(difluoromethoxy)-11-(4-((S or R)-1-(dimethylphosphoryl)ethyl)phenyl)-6-(methyl-d3)-6,7-dihydro-7,14-methanobenzo[f]benzo[4,5]imidazo[1,2-a][1,4]diazocin-5(14H)-one], for which the IC50 is less than 100 nM.

On to `[2H]C([2H])([2H])N1C(=O)c2cccc(OC(F)F)c2[C@H]2C[C@@H]1c1nc3ccc(-c4ccc(C(C)P(C)(C)=O)cc4)cc3n12` (single isomer, unassigned) [Example 86, (7R,14R)-1-(difluoromethoxy)-11-(4-((R or S)-1-(dimethylphosphoryl)ethyl)phenyl)-6-(methyl-d3)-6,7-dihydro-7,14-methanobenzo[f]benzo[4,5]imidazo[1,2-a][1,4]diazocin-5(14H)-one], for which the IC50 was less than 100 nM. In the case of `[2H]C([2H])([2H])N1C(=O)c2cccc(OC(F)F)c2[C@H]2C[C@@H]1c1nc3ccc(-c4ccc(C(C)P(C)(C)=O)c(F)c4)cc3n12` (single isomer, unassigned) [Example 99, (7R,14R)-1-(difluoromethoxy)-11-(4-((S or R)-1-(dimethylphosphoryl)ethyl)-3-fluorophenyl)-6-(methyl-d3)-6,7-dihydro-7,14-methanobenzo[f]benzo[4,5]imidazo[1,2-a][1,4]diazocin-5(14H)-one], the IC50 is less than 100 nM. For `[2H]C([2H])([2H])N1C(=O)c2cccc(OC(F)F)c2[C@H]2C[C@@H]1c1nc3ccc(-c4ccc(C(C)P(C)(C)=O)c(F)c4)cc3n12` (single isomer, unassigned) [Example 100, (7R,14R)-1-(difluoromethoxy)-11-(4-((R or S)-1-(dimethylphosphoryl)ethyl)-3-fluorophenyl)-6-(methyl-d3)-6,7-dihydro-7,14-methanobenzo[f]benzo[4,5]imidazo[1,2-a][1,4]diazocin-5(14H)-one], the half-maximal inhibitory concentration (IC50) is less than 100 nM. Under `[2H]C([2H])([2H])N1C(=O)c2cccc(OC(F)F)c2[C@H]2C[C@@H]1c1nc3ccc(-c4cc(F)c(C(C)P(C)(C)=O)c(F)c4)cc3n12` (single isomer, unassigned) [Example 109, (7R,14R)-1-(difluoromethoxy)-11-(4-((R or S)-1-(dimethylphosphoryl)ethyl)-3,5-difluorophenyl)-6-(methyl-d3)-6,7-dihydro-7,14-methanobenzo[f]benzo[4,5]imidazo[1,2-a][1,4]diazocin-5(14H)-one] stands less than 100 nM; under `[2H]C([2H])([2H])N1C(=O)c2cccc(OC(F)F)c2[C@H]2C[C@@H]1c1nc3ccc(-c4ccc(C(C)(O)P(C)(C)=O)cc4)cc3n12` (single isomer, unassigned) [Example 110, (7R,14R)-1-(difluoromethoxy)-11-(4-((S or R)-1-(dimethylphosphoryl)-1-hydroxyethyl)phenyl)-6-(methyl-d3)-6,7-dihydro-7,14-methanobenzo[f]benzo[4,5]imidazo[1,2-a][1,4]diazocin-5(14H)-one], less than 100 nM. As for `[2H]C([2H])([2H])N1C(=O)c2cccc(OC(F)F)c2[C@H]2C[C@@H]1c1nc3ccc(-c4ccc([C@@](C)(O)P(C)(C)=O)cc4)cc3n12` (single isomer, unassigned) [Example 111, (7R,14R)-1-(difluoromethoxy)-11-(4-((R or S)-1-(dimethylphosphoryl)-1-hydroxyethyl)phenyl)-6-(methyl-d3)-6,7-dihydro-7,14-methanobenzo[f]benzo[4,5]imidazo[1,2-a][1,4]diazocin-5(14H)-one], the IC50 is less than 100 nM. As to `[2H]C([2H])([2H])N1C(=O)c2cccc(OC(F)F)c2[C@H]2C[C@@H]1c1nc3ccc(-c4cc(F)c(C(C)P(C)(C)=O)c(F)c4)cc3n12` (single isomer, unassigned) [Example 112, (7R,14R)-1-(difluoromethoxy)-11-(4-((S or R)-1-(dimethylphosphoryl)ethyl)-3,5-difluorophenyl)-6-(methyl-d3)-6,7-dihydro-7,14-methanobenzo[f]benzo[4,5]imidazo[1,2-a][1,4]diazocin-5(14H)-one], the IC50 is less than 100 nM. `[2H]C([2H])([2H])N1C(=O)c2cccc(OC(F)F)c2[C@H]2C[C@@H]1c1nc3ccc(-c4ccc([C@@H](C)P(C)(C)=O)c(F)c4C)cc3n12` (single isomer, unassigned) [Example 113, (7R,14R)-1-(difluoromethoxy)-11-(4-((R or S)-1-(dimethylphosphoryl)ethyl)-3-fluoro-2-methylphenyl)-6-(methyl-d3)-6,7-dihydro-7,14-methanobenzo[f]benzo[4,5]imidazo[1,2-a][1,4]diazocin-5(14H)-one]: the IC50 was less than 100 nM. On to `[2H]C([2H])([2H])N1C(=O)c2cccc(OC(F)F)c2[C@H]2C[C@@H]1c1nc3ccc(-c4ccc([C@H](C)P(C)(C)=O)c(F)c4C)cc3n12` (single isomer, unassigned) [Example 114, (7R,14R)-1-(difluoromethoxy)-11-(4-((S or R)-1-(dimethylphosphoryl)ethyl)-3-fluoro-2-methylphenyl)-6-(methyl-d3)-6,7-dihydro-7,14-methanobenzo[f]benzo[4,5]imidazo[1,2-a][1,4]diazocin-5(14H)-one], for which the half-inhibitory concentration (IC50) was less than 100 nM. Turning to `[2H]C([2H])([2H])N1C(=O)c2cccc(OC(F)F)c2[C@H]2C[C@@H]1c1nc3ccc(-c4cc(F)c(C(C)P(C)(C)=O)cc4C)cc3n12` (single isomer, unassigned) [Example 118, (7R,14R)-1-(difluoromethoxy)-11-(4-((R or S)-1-(dimethylphosphoryl)ethyl)-5-fluoro-2-methylphenyl)-6-(methyl-d3)-6,7-dihydro-7,14-methanobenzo[f]benzo[4,5]imidazo[1,2-a][1,4]diazocin-5(14H)-one], the IC50 was less than 100 nM. For the compound `[2H]C([2H])([2H])N1C(=O)c2cccc(OC(F)F)c2[C@H]2C[C@@H]1c1nc3ccc(-c4cc(F)c(C(C)P(C)(C)=O)cc4C)cc3n12` (single isomer, unassigned) [Example 119, (7R,14R)-1-(difluoromethoxy)-11-(4-((S or R)-1-(dimethylphosphoryl)ethyl)-5-fluoro-2-methylphenyl)-6-(methyl-d3)-6,7-dihydro-7,14-methanobenzo[f]benzo[4,5]imidazo[1,2-a][1,4]diazocin-5(14H)-one], the IC50 was less than 100 nM.

Consider `CP(C)(=O)c1ncc(-c2ccc3nc4n(c3c2)[C@@H]2C[C@H]4NC(=O)c3cccc(OC(F)F)c32)cn1` [Example 1, (7R,14R)-1-(difluoromethoxy)-11-(2-(dimethylphosphoryl)pyrimidin-5-yl)-6,7-dihydro-7,14-methanobenzo[f]benzo[4,5]imidazo[1,2-a][1,4]diazocin-5(14H)-one], for which the IC50 was in the range of 100 to 1000 nM. With `CN1C(=O)c2cccc(OC(F)F)c2[C@H]2C[C@@H]1c1nc3ccc(-c4ccc(P(C)(C)=O)nc4)cc3n12` [Example 2, (7R,14R)-1-(difluoromethoxy)-11-(6-(dimethylphosphoryl)pyridin-3-yl)-6-methyl-6,7-dihydro-7,14-methanobenzo[f]benzo[4,5]imidazo[1,2-a][1,4]diazocin-5(14H)-one], the IC50 was less than 100 nM. Consider `CP(C)(=O)c1ccc(-c2ccc3nc4n(c3c2)[C@@H]2C[C@H]4NC(=O)c3cccc(OC(F)F)c32)cn1` [Example 3, (7R,14R)-1-(difluoromethoxy)-11-(6-(dimethylphosphoryl)pyridin-3-yl)-6,7-dihydro-7,14-methanobenzo[f]benzo[4,5]imidazo[1,2-a][1,4]diazocin-5(14H)-one], for which the IC50 fell in the range of 100 to 1000 nM. `CN1C(=O)c2cccc(OC(F)F)c2[C@H]2C[C@@H]1c1nc3ccc(-c4cnc(P(C)(C)=O)c(F)c4)cc3n12` [Example 4, (7R,14R)-1-(difluoromethoxy)-11-(6-(dimethylphosphoryl)-5-fluoropyridin-3-yl)-6-methyl-6,7-dihydro-7,14-methanobenzo[f]benzo[4,5]imidazo[1,2-a][1,4]diazocin-5(14H)-one]: the IC50 is less than 100 nM.

As to `CN1C(=O)c2cccc(OC(F)F)c2[C@H]2C[C@@H]1c1nc3ccc(-c4ccc(P5(=O)CCCC5)nc4)cc3n12` [Example 5, (1R,11R)-18-(difluoromethoxy)-12-methyl-5-[6-(1-oxo-1lambda5-phospholan-1-yl)pyridin-3-yl]-2,9,12-triazapentacyclo[9.8.1.0^{2,10}.0^{3,8}.0^{14,19}]icosa-3(8),4,6,9,14(19),15,17-heptaen-13-one], the IC50 is less than 100 nM. As to `CN1C(=O)c2cccc(OC(F)F)c2[C@H]2C[C@@H]1c1nc3ccc(-c4ccc(P5(=O)CCOCC5)nc4)cc3n12` [Example 6, (1R,11R)-18-(difluoromethoxy)-12-methyl-5-[6-(4-oxo-1,4lambda5-oxaphosphinan-4-yl)pyridin-3-yl]-2,9,12-triazapentacyclo[9.8.1.0^{2,10}.0^{3,8}.0^{14,19}]icosa-3(8),4,6,9,14(19),15,17-heptaen-13-one], the IC50 is less than 100 nM.
